Data published in ChEMBL document CHEMBL1201862, “PubChem BioAssay data set” (2004).
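48-hour exposure; five concentrations; linearly interpolated endpoints. GI50: concentration for 50% inhibition of growth.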 Activity calls are given as the source filed them. Rule as the data show it: active = GI50 up to about 1.1 µM and inactive = higher.

Legend:
Experiment in all cases: growth of human tumour cells (NCI), 48 h
786-0 = tested on: 786-0
CAKI-1 = tested on: CAKI-1
EKVX = tested on: EKVX
HCC 2998 = tested on: HCC 2998
HL-60 = tested on: HL-60
HOP-62 = tested on: HOP-62
HT-29 = tested on: HT-29
IGROV-1 = tested on: IGROV-1
KM12 = tested on: KM12
LOX IMVI = tested on: LOX IMVI
MDA-N = tested on: MDA-N
NCI-H23 = tested on: NCI-H23
OVCAR-3 = tested on: OVCAR-3
OVCAR-5 = tested on: OVCAR-5
OVCAR-8 = tested on: OVCAR-8
RPMI-8226 = tested on: RPMI-8226
SK-OV-3 = tested on: SK-OV-3
T47D = tested on: T47D
TK-10 = tested on: TK-10
UACC-62 = tested on: UACC-62

O=C1NC(N2CCOCC2)=N/C1=C\c1ccc(Cl)cc1
GI50 (786-0): > 100 µM (inactive) | GI50 (CAKI-1): > 100 µM (inactive) | GI50 (EKVX): > 100 µM (inactive) | GI50 (HCC 2998): > 100 µM (inactive) | GI50 (HL-60): > 100 µM (inactive) | GI50 (HOP-62): > 100 µM (inactive) | GI50 (HT-29): > 100 µM (inactive) | GI50 (IGROV-1): > 100 µM (inactive) | GI50 (KM12): > 100 µM (inactive) | GI50 (LOX IMVI): > 100 µM (inactive) | GI50 (MDA-N): > 100 µM (inactive) | GI50 (NCI-H23): > 100 µM (inactive) | GI50 (OVCAR-3): > 100 µM (inactive) | GI50 (OVCAR-5): > 100 µM (inactive) | GI50 (OVCAR-8): > 100 µM (inactive) | GI50 (RPMI-8226): > 100 µM (inactive) | GI50 (SK-OV-3): > 100 µM (inactive) | GI50 (T47D): > 100 µM (inactive) | GI50 (TK-10): > 100 µM (inactive) | GI50 (UACC-62): > 100 µM (inactive)

Cc1ccc2c(c1)C(=O)C(Cc1ccccc1C(=O)O)C2 (stereo not given)
GI50 (786-0): > 100 µM (inactive) | GI50 (CAKI-1): > 100 µM (inactive) | GI50 (EKVX): > 100 µM (inactive) | GI50 (HCC 2998): > 100 µM (inactive) | GI50 (HL-60): > 100 µM (inactive) | GI50 (HOP-62): > 100 µM (inactive) | GI50 (HT-29): > 100 µM (inactive) | GI50 (IGROV-1): > 100 µM (inactive) | GI50 (KM12): > 100 µM (inactive) | GI50 (LOX IMVI): > 100 µM (inactive) | GI50 (MDA-N): > 100 µM (inactive) | GI50 (NCI-H23): > 100 µM (inactive) | GI50 (OVCAR-3): > 100 µM (inactive) | GI50 (OVCAR-5): > 100 µM (inactive) | GI50 (OVCAR-8): > 100 µM (inactive) | GI50 (RPMI-8226): > 100 µM (inactive) | GI50 (SK-OV-3): > 100 µM (inactive) | GI50 (T47D): > 100 µM (inactive) | GI50 (TK-10): > 100 µM (inactive) | GI50 (UACC-62): > 100 µM (inactive)

COc1cc(Nc2ccc3c(c2)CCC3)nc(OC)n1
GI50 (786-0): 37.2 µM (inactive) | GI50 (CAKI-1): 37.9 µM (inactive) | GI50 (EKVX): 17.1 µM (inactive) | GI50 (HCC 2998): 29.7 µM (inactive) | GI50 (HL-60): 29.6 µM (inactive) | GI50 (HOP-62): 54.6 µM (inactive) | GI50 (HT-29): 19.9 µM (inactive) | GI50 (IGROV-1): 31.4 µM (inactive) | GI50 (KM12): 27.9 µM (inactive) | GI50 (LOX IMVI): 45.7 µM (inactive) | GI50 (MDA-N): 26.1 µM (inactive) | GI50 (NCI-H23): 36 µM (inactive) | GI50 (OVCAR-3): 46.1 µM (inactive) | GI50 (OVCAR-5): 78 µM (inactive) | GI50 (OVCAR-8): 34.8 µM (inactive) | GI50 (RPMI-8226): 14.7 µM (inactive) | GI50 (SK-OV-3): 50 µM (inactive) | GI50 (T47D): 26.4 µM (inactive) | GI50 (TK-10): 28.2 µM (inactive) | GI50 (UACC-62): 51.3 µM (inactive)

O=C(/C=C/c1ccccc1)Oc1ccc(C(=O)/C=C/c2ccccc2)cc1
GI50 (786-0): 6.53 µM (inactive) | GI50 (CAKI-1): 13.1 µM (inactive) | GI50 (EKVX): 13.3 µM (inactive) | GI50 (HCC 2998): 8.47 µM (inactive) | GI50 (HL-60): 2.84 µM (inactive) | GI50 (HOP-62): 12.9 µM (inactive) | GI50 (HT-29): 12.1 µM (inactive) | GI50 (IGROV-1): 11.5 µM (inactive) | GI50 (KM12): 5.4 µM (inactive) | GI50 (LOX IMVI): 4.98 µM (inactive) | GI50 (MDA-N): 6.3 µM (inactive) | GI50 (NCI-H23): 10.6 µM (inactive) | GI50 (OVCAR-3): 10.3 µM (inactive) | GI50 (OVCAR-5): 13.7 µM (inactive) | GI50 (OVCAR-8): 10.2 µM (inactive) | GI50 (RPMI-8226): 3.25 µM (inactive) | GI50 (SK-OV-3): 21.4 µM (inactive) | GI50 (T47D): 11 µM (inactive) | GI50 (TK-10): 14.5 µM (inactive) | GI50 (UACC-62): 12.9 µM (inactive)

COc1oc(C2C/C(=C/C(C)=C/C(C)=C/C(C)=C/c3ccc([N+](=O)[O-])cc3)CO2)c(C)c(=O)c1C (stereo not given)
GI50 (786-0): 5.64 µM (inactive) | GI50 (CAKI-1): 12.5 µM (inactive) | GI50 (EKVX): 2.58 µM (inactive) | GI50 (HCC 2998): 22.4 µM (inactive) | GI50 (HL-60): 1.68 µM (inactive) | GI50 (HOP-62): 19.9 µM (inactive) | GI50 (HT-29): 3.14 µM (inactive) | GI50 (IGROV-1): 13.2 µM (inactive) | GI50 (KM12): 1.58 µM (inactive) | GI50 (LOX IMVI): 4.02 µM (inactive) | GI50 (MDA-N): 2.74 µM (inactive) | GI50 (NCI-H23): 1.79 µM (inactive) | GI50 (OVCAR-3): 11.1 µM (inactive) | GI50 (OVCAR-5): 47.4 µM (inactive) | GI50 (OVCAR-8): 1.52 µM (inactive) | GI50 (RPMI-8226): 0.55 µM (active) | GI50 (SK-OV-3): 12.9 µM (inactive) | GI50 (T47D): 1.04 µM (active) | GI50 (TK-10): 10 µM (inactive) | GI50 (UACC-62): 5 µM (inactive)

N#Cc1c(N2CCCC2)ncn(-c2ccccc2)c1=S
GI50 (786-0): > 100 µM (inactive) | GI50 (CAKI-1): > 100 µM (inactive) | GI50 (EKVX): > 100 µM (inactive) | GI50 (HCC 2998): > 100 µM (inactive) | GI50 (HL-60): > 100 µM (inactive) | GI50 (HOP-62): > 100 µM (inactive) | GI50 (HT-29): > 100 µM (inactive) | GI50 (IGROV-1): > 100 µM (inactive) | GI50 (KM12): > 100 µM (inactive) | GI50 (LOX IMVI): > 100 µM (inactive) | GI50 (MDA-N): > 100 µM (inactive) | GI50 (NCI-H23): > 100 µM (inactive) | GI50 (OVCAR-3): > 100 µM (inactive) | GI50 (OVCAR-5): > 100 µM (inactive) | GI50 (OVCAR-8): > 100 µM (inactive) | GI50 (RPMI-8226): > 100 µM (inactive) | GI50 (SK-OV-3): > 100 µM (inactive) | GI50 (T47D): > 100 µM (inactive) | GI50 (TK-10): > 100 µM (inactive) | GI50 (UACC-62): 19.5 µM (inactive)

CC(=O)CCNc1ccc(-c2cc(-c3ccc(N(C)C)cc3)nc3ccc4ccccc4c23)cc1
GI50 (786-0): 22.4 µM (inactive) | GI50 (CAKI-1): > 65.8 µM (inactive) | GI50 (EKVX): > 51.5 µM (inactive) | GI50 (HCC 2998): > 100 µM (inactive) | GI50 (HL-60): 3.7 µM (inactive) | GI50 (HOP-62): > 100 µM (inactive) | GI50 (HT-29): 66.2 µM (inactive) | GI50 (IGROV-1): 14.5 µM (inactive) | GI50 (KM12): 27.5 µM (inactive) | GI50 (LOX IMVI): > 100 µM (inactive) | GI50 (MDA-N): > 100 µM (inactive) | GI50 (NCI-H23): > 100 µM (inactive) | GI50 (OVCAR-3): 44.8 µM (inactive) | GI50 (OVCAR-5): > 100 µM (inactive) | GI50 (OVCAR-8): > 100 µM (inactive) | GI50 (RPMI-8226): 11.7 µM (inactive) | GI50 (SK-OV-3): > 100 µM (inactive) | GI50 (T47D): 9.48 µM (inactive) | GI50 (TK-10): > 100 µM (inactive) | GI50 (UACC-62): > 60.8 µM (inactive)

CN1C[C@@H]2CCCN2P1Oc1cccc2cccnc12 (stereo not given in full)
GI50 (786-0): > 100 µM (inactive) | GI50 (CAKI-1): 35.3 µM (inactive) | GI50 (EKVX): 29 µM (inactive) | GI50 (HCC 2998): 47.3 µM (inactive) | GI50 (HL-60): 16.1 µM (inactive) | GI50 (HOP-62): 52.1 µM (inactive) | GI50 (HT-29): 33 µM (inactive) | GI50 (IGROV-1): 32.9 µM (inactive) | GI50 (KM12): 40.2 µM (inactive) | GI50 (LOX IMVI): 97.5 µM (inactive) | GI50 (MDA-N): 55.2 µM (inactive) | GI50 (NCI-H23): 17.9 µM (inactive) | GI50 (OVCAR-3): 23.4 µM (inactive) | GI50 (OVCAR-5): 32.6 µM (inactive) | GI50 (OVCAR-8): 42.6 µM (inactive) | GI50 (RPMI-8226): 13.2 µM (inactive) | GI50 (SK-OV-3): > 100 µM (inactive) | GI50 (T47D): 9.77 µM (inactive) | GI50 (TK-10): 75.7 µM (inactive) | GI50 (UACC-62): 39.3 µM (inactive)

COc1ccc(/C=C2\CN(C)C/C(=C\c3ccc(OC)c(OC)c3OC)C2=O)c(OC)c1OC
GI50 (786-0): 0.0887 µM (active) | GI50 (CAKI-1): 0.485 µM (active) | GI50 (EKVX): 1.67 µM (inactive) | GI50 (HCC 2998): 0.171 µM (active) | GI50 (HL-60): 0.0191 µM (active) | GI50 (HOP-62): 0.294 µM (active) | GI50 (HT-29): 0.171 µM (active) | GI50 (IGROV-1): 0.311 µM (active) | GI50 (KM12): 0.0859 µM (active) | GI50 (LOX IMVI): 0.115 µM (active) | GI50 (MDA-N): 0.0968 µM (active) | GI50 (NCI-H23): 0.0579 µM (active) | GI50 (OVCAR-3): 0.11 µM (active) | GI50 (OVCAR-5): 0.232 µM (active) | GI50 (OVCAR-8): 0.07 µM (active) | GI50 (RPMI-8226): 0.0292 µM (active) | GI50 (SK-OV-3): 0.586 µM (active) | GI50 (T47D): 1.05 µM (active) | GI50 (TK-10): 1.01 µM (active) | GI50 (UACC-62): 0.2 µM (active)

Clc1ccccc1C(Nc1cnccn1)Nc1cnccn1
GI50 (786-0): > 100 µM (inactive) | GI50 (CAKI-1): > 100 µM (inactive) | GI50 (EKVX): > 100 µM (inactive) | GI50 (HCC 2998): > 100 µM (inactive) | GI50 (HL-60): 0.692 µM (active) | GI50 (HOP-62): > 100 µM (inactive) | GI50 (HT-29): > 100 µM (inactive) | GI50 (IGROV-1): > 100 µM (inactive) | GI50 (KM12): > 100 µM (inactive) | GI50 (LOX IMVI): > 100 µM (inactive) | GI50 (MDA-N): 23.2 µM (inactive) | GI50 (NCI-H23): > 100 µM (inactive) | GI50 (OVCAR-3): > 100 µM (inactive) | GI50 (OVCAR-5): > 100 µM (inactive) | GI50 (OVCAR-8): > 100 µM (inactive) | GI50 (RPMI-8226): 35.1 µM (inactive) | GI50 (SK-OV-3): > 100 µM (inactive) | GI50 (T47D): > 100 µM (inactive) | GI50 (TK-10): > 100 µM (inactive) | GI50 (UACC-62): > 100 µM (inactive)
